Experiments:
Assay in all cases: relative viability (nuclei count vs DMSO), 5 days (fraction); higher = more cells survive
[1] = compound: Cn1c(=O)n(-c2ccc(C(C)(C)C#N)cc2)c2c3cc(-c4cnc5ccccc5c4)ccc3ncc21 [Dactolisib] + COc1cccc2cc(-c3nc([C@H]4CC[C@H](C(=O)O)CC4)n4ncnc(N)c34)[nH]c12 [OSI-027] (partner 0.5 µM)
How it was run: (§1)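 Lung cancer cell lines were seeded in 1536-well plates and dosed by pin tool the next day, with either a single drug or a fixed anchor-drug dose combined with five library-drug doses (not always all listed) spaced in √10 steps. Five days later, one step fixed the cells and stained their nuclei (final 0.05% Triton X-100, 1% formaldehyde, 1 ug/ml Hoechst), and nuclei were counted on 4× images. Relative viability is the nuclei count in treated wells divided by the count in vehicle wells, and each value is the median of duplicate plates.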

[2] = compound: Cn1c(=O)n(-c2ccc(C(C)(C)C#N)cc2)c2c3cc(-c4cnc5ccccc5c4)ccc3ncc21 [Dactolisib] + C[C@@H](Oc1cc(-c2cnn(C3CCNCC3)c2)cnc1N)c1c(Cl)ccc(F)c1Cl [Crizotinib] (partner 1 µM)
How it was run: as §1

[3] = compound: C1CCC(CC1)N(CCNCCC2=C3C(=C(C=C2)O)NC(=O)CO3)C(=O)CCNCCC4=CC(=C(C=C4)Cl)Cl [AZ505] + O=C(c1cc(Cc2n[nH]c(=O)c3ccccc23)ccc1F)N1CCN(C(=O)C2CC2)CC1 [Olaparib] (partner 8 µM)
How it was run: as §1

[4] = compound: Cn1c(=O)n(-c2ccc(C(C)(C)C#N)cc2)c2c3cc(-c4cnc5ccccc5c4)ccc3ncc21 [Dactolisib] + CC(=O)Nc1cccc(-n2c(=O)n(C3CC3)c(=O)c3c(Nc4ccc(I)cc4F)n(C)c(=O)c(C)c32)c1 [Trametinib] (partner 0.02 µM)
How it was run: as §1

Cell Line	relative viability ([1]; first compound 0.002 µM)	relative viability ([1]; first compound 0.006325 µM)	relative viability ([1]; first compound 0.02 µM)	relative viability ([1]; first compound 0.06325 µM)	relative viability ([1]; first compound 0.2 µM)	relative viability ([2]; first compound 0.002 µM)	relative viability ([2]; first compound 0.006325 µM)	relative viability ([2]; first compound 0.02 µM)	relative viability ([2]; first compound 0.06325 µM)	relative viability ([2]; first compound 0.2 µM)	relative viability ([3]; first compound 0.08 µM)	relative viability ([3]; first compound 0.253 µM)	relative viability ([3]; first compound 0.8 µM)	relative viability ([3]; first compound 2.53 µM)	relative viability ([3]; first compound 8 µM)	relative viability ([4]; first compound 0.002 µM)	relative viability ([4]; first compound 0.006325 µM)	relative viability ([4]; first compound 0.02 µM)	relative viability ([4]; first compound 0.06325 µM)	relative viability ([4]; first compound 0.2 µM)
COR-L 105	0.776	0.619	0.478	0.385	0.314	0.85	0.874	0.561	0.645	0.283	0.405	0.657	0.698	0.715	0.554	0.43	0.413	0.4	0.425	0.394
NCI-H1355	0.436	0.475	0.455	0.328	0.246	1.18	1.09	0.99	0.488	0.326	0.719	0.796	0.729	0.734	0.711	0.45	0.37	0.384	0.215	0.203
H3255	0.724	0.469	0.623	0.609	0.488	0.974	0.813	0.912	0.556	0.391	0.55	0.564	0.569	0.601	0.597	0.657	0.58	0.507	0.539	0.455
NCI-H1993	0.596	0.496	0.615	0.469	0.589	0.84	0.761	0.66	0.594	0.585	0.995	1.12	1.14	1.01	1.16	0.514	0.455	0.504	0.389	0.421
NCI-H1734	0.561	0.594	0.562	0.313	0.247	0.634	0.578	0.454	0.333	0.164	0.603	0.673	0.613	0.63	0.641	0.69	0.557	0.624	0.374	0.25
HOP-62	0.986	0.881	0.728	0.611	0.492	1.06	1.01	0.923	0.505	0.472	–	0.374	0.386	0.387	0.45	0.429	0.349	0.369	0.23	0.195
LOU-NH91	0.701	0.716	0.741	0.732	0.519	0.718	0.715	0.698	0.593	0.515	0.87	0.897	0.886	0.903	0.894	0.778	0.714	0.679	0.557	0.612
ChaGo-K-1	0.538	0.528	0.571	0.537	0.609	1.06	1.03	1.1	1.12	1.13	0.404	0.439	0.431	0.402	0.469	0.846	0.912	0.91	0.813	0.791
NCI-H2228	0.497	0.426	0.417	0.186	0.176	0.601	0.283	0.297	0.252	0.175	0.669	0.627	0.524	0.863	0.481	0.688	0.4	0.383	0.218	0.144
PC-14	0.863	0.755	0.662	0.2	0.0989	0.918	0.932	0.953	0.603	0.391	0.302	0.255	0.248	0.324	0.241	0.81	0.583	0.367	0.0961	0.0834
NCI-H1437	0.849	0.903	0.883	0.834	0.586	1.03	0.904	0.902	0.699	0.865	0.623	0.623	0.632	0.595	0.637	0.558	0.507	0.487	0.369	0.292
NCI-H460	0.829	0.661	0.615	0.119	0.153	1.09	0.835	0.513	0.136	0.0929	0.365	0.477	0.388	0.46	0.477	0.2	0.0901	0.13	0.0463	0.0358
NCI-H1666	1.04	0.895	0.864	0.755	0.687	1.22	0.884	0.876	0.637	0.436	0.736	0.812	0.721	0.731	0.764	0.855	0.804	0.835	0.734	0.742
NCI-H1651	0.783	0.665	0.639	0.421	0.323	0.861	0.891	0.777	0.679	0.57	0.182	0.19	0.179	0.185	0.186	0.816	0.825	0.822	0.599	0.452

From the supplement of paper PMC10307832
